Measured values published in paper PMC9167697 (Clinical cancer research : an official journal of the …, 2022).

Tests used:
[1] = Plasma pharmacokinetics of taminadenant in the phase I/Ib study; assay type: in vivo, human
[2] = test system: advanced/metastatic NSCLC; experiment: Tumor response; assay type: in vivo, human
[3] = test system: patients with advanced NSCLC; experiment: Safety, tolerability, DLT and MTD in the phase I/Ib dose-escalation study; assay type: in vivo
[4] = target: human A2AR; conditions: cited from earlier work
[5] = test system: mouse xenograft models; conditions: cited from earlier work
[6] = test system: A2AR; conditions: cells transfected with A2AR; cited from earlier work
[7] = investigator-assessed, RECIST v1.1, n=25

## Nc1nc(-n2cccn2)nc(-n2cccn2)c1Br [Taminadenant]
[1]; human, in vivo
  Vd/F: 114 to 1520 L
  apparent clearance (CL/F) upon repeated daily dosing compared with a single dose: notably decreased
[1]; human, in vivo, po
  time to maximum plasma drug concentration (Cmax): 0.5 to 3 h
[1]; large inter-individual variability in Cmax and AUC
  differences in taminadenant PK between the single-agent and combination group: no notable differences
[1]; repeated daily doses, after 1 week
  accumulation relative to a single dose: approximately 3 fold
[1]; single and multiple doses from 80 mg to 640 mg
  increase of systemic exposure (Cmax, AUC) with escalating doses: more-than-proportional
[2]; CR + PR + SD, based on the number of evaluable patients
  Disease control rate: 42.9 (21.8–66.0) % (95% CI)
[2]; CR + PR, based on the number of evaluable patients
  Overall response rate: 9.5 (1.2–30.4) % (95% CI)
[2]; Kaplan-Meier
  median estimate of OS: 9.7 months
[2]; Kaplan-Meier, RECIST v1.1
  median estimate of PFS: 3.9 months
[2]; [7]
  Best overall response: Complete response: 1 (4.0) n (%)
  Best overall response: Non-evaluable: 4 (16.0) n (%)
  Best overall response: Partial response: 1 (4.0) n (%)
  Best overall response: Progressive disease: 12 (48.0) n (%)
  Best overall response: Stable disease: 7 (28.0) n (%)
[2]; of all 25 patients per group
  patients who achieved disease control: 36.0%
[2]; one patient each, single agent 480 mg, combination 160 mg taminadenant
  duration of complete response: 1.1 months
[2]; one patient, 160 mg, on treatment at data cut-off
  duration of disease control in a patient with stable disease: 36.7 months
[3]; human, in vivo
  dose delays or interruptions: 13 patients
  patients who discontinued due to adverse events: 12.0%
  patients with Grade 3/4 TRAEs: 16.0%
  patients with treatment-related adverse events (TRAEs) of any grade: 84.0%
  patients with treatment-related fatigue: 20.0%
  patients with treatment-related gastroesophageal reflux disease: 24.0%
  patients with treatment-related nausea: 44.0%
  patients with treatment-related vomiting: 20.0%
[3]; in vivo
  dose delays due to TRAEs: five
  patients reporting at least one adverse event, regardless of causality: All patients
  tolerability: well tolerated
[3]; n=25 per group, none related to study treatment
  on-study deaths: 8.0%
[3]; oral, combination with 400 mg spartalizumab Q4W
  maximum tolerated dose (MTD) of taminadenant: 480 mg BID
[4]
  in vitro binding affinity to human A2AR, as concentration: 3.67 ng/mL
[4]; read-out: in vitro binding affinity to human A2AR
  Ki: 12 nM
[5]
  effect on tumor growth: significantly reduced tumor growth
[6]
  effect on cyclic adenosine monophosphate accumulation: inhibition of cyclic adenosine monophosphate accumulation
